Results reported in patent US8778896B2, “Levoisovalerylspiramycin I, II or III, preparations, preparation methods and uses thereof” (Shenyang Tonglian Group Co., Ltd., priority 2010, dated 2014).
Values after ≈ are worked out from the molar mass of the structure shown.

Key:
[1] = test system: streptococcus pneumoniae18; test: Curative effect on mouse with abdominal infection (ED50); assay type: in vivo, streptococcus pneumoniae; conditions: Streptococcus, 168 h, streptococcus pneumoniae18, challenging dose 9.6 × 10^4 CFU/0.5 ml, deaths in 7 days, Bliss, read-out: ED50
Protocol: (§1) Test method: preparation of infection bacterial liquid: taking out the test bacterial liquid which is kept in a refrigerator at −80[…] to room temperature for about 1 h, then inoculating streptococcus pneumonia, pyogenic streptococcus and enterococcus absorbing 0.1 ml bacterial liquid respectively to 2 ml MH broth (add 10% inactivated horse serum), and inoculating 0.1 ml bacterial liquid of staphylococcus aureus to 2 ml MH broth according to the same method above; putting it in an incubator at 37[…] to be cultivated for 18 h, to obtain original bacterial liquid; diluting the original bacterial liquid with 5% gastric mucin to make animals infected with 100% lethal bacteria, to obtain infection bacterial liquid.
(§2) The clinical route of administration of carrimycin is proposed to be oral administration, thus intragastric administration is adopted in carrimychin test. Levoisovalerylspiramycin I (obtained in Embodiment 1) and of crystalline compound of levoisovalerylspiramycin I (prepared in Embodiment 27) are fed to animals via […].
(§3) After the mice are infected, respectively feed each mouse 0.2 ml via intragastric administration at 0.5 to 6 h, and they have no adverse reaction. Observe the number of deaths in 7 days, and calculate the 50% effective dose (ED50) of each drug for the infected mouse and compare the protective effect of drugs by Bliss program.

[2] = test system: streptococcus pneumoniae57; test: as above; assay type: in vivo, streptococcus pneumoniae; conditions: Streptococcus, 168 h, streptococcus pneumoniae57, challenging dose 8.8 × 10^4 CFU/0.5 ml, deaths in 7 days, Bliss, read-out: ED50
Protocol: as §1, §2, §3

[3] = test system: streptococcus pneumoniae3; test: as above; assay type: in vivo, streptococcus pneumoniae; conditions: Streptococcus, 168 h, streptococcus pneumoniae3, challenging dose 6.4 × 10^4 CFU/0.5 ml, deaths in 7 days, Bliss, read-out: ED50
Protocol: as §1, §2, §3

[4] = test system: Chlamydia Trachomatis B/TW-5/OT; test: Chlamydia in vitro MIC, McCoy cells, immunofluorescence; assay type: cell-based; conditions: 48 hours, read-out: MIC
[5] = Acute toxicity on rats via oral administration; conditions: rat, in vivo, po, 4500 mg/kg
Protocol: (§4) Both mice and rats take drugs orally (levoisovalerylspiramycin I, II and III prepared in Embodiment 1)
After observing the mice and rats for two days before test, and those without abnormal conditions is carried out test. Don't give anything to eat to mice and rats overnight before test. […] […] Observe those taking drugs for one week for toxic reaction and death.

[6] = Acute toxicity on mice via oral administration; conditions: mouse, in vivo, po, 4000 mg/kg
Protocol: as §4
After observing the mice and rats for two days before test, and those without abnormal conditions is carried out test. Don't give anything to eat to mice and rats overnight before test. […] In this test, feed drugs to mice and rats respectively as per 4000 mg/kg, wherein, mice follow 100 mg/ml, with intragastric administration capacity of 0.6-0.8 ml per one, while rats 173 mg/ml, with intragastric administration capacity of 0.8˜1.0 ml/50 g. Observe those taking drugs for one week for toxic reaction and death.

[7] = test system: staphylococcus aureus76; test: MIC against the infecting test organism; assay type: cell-based, staphylococcus aureus; conditions: read-out: MIC
[8] = test system: enterococcus (106); test: Clinical isolates, agar double dilution method; assay type: cell-based; conditions: 106 clinical isolates of enterococcus
[9] = test system: pyogenic streptococcus 102; test: MIC against the infecting test organism; assay type: cell-based; conditions: read-out: MIC
[10] = test system: pyogenic streptococcus 119; test: MIC against the infecting test organism; assay type: cell-based; conditions: read-out: MIC
[11] = test system: adult acute respiratory infections caused by sensitive bacteria; test: Clinical test versus Azithromycin, multi-center random double blind; assay type: in vivo; conditions: patients 18 to 65 years
Protocol: Adopt a multi-center, random, two blind, double simulation control test, which is carried out in 5 hospitals concurrently according to the unified clinical testing program.
1. Patients from 18 to 65 years old (men and women);
2. Sensitive acute respiratory infections caused by sensitive bacteria include acute bacterial pharyngitis, acute suppurative tonsillitis, acute tracheobronchitis, mild pneumonia and acute nasosinusitis etc;
3. Any subject shall sign an informed consent before being selected.
4. All subjects shall be contracepted in the research period and within at least 3 months upon being dosed.
1. Those with hepatic or renal insufficiency (Blood Cr>1.5 mg/dl and ALT>normal upper limit)
2. The women in pregnancy or lactation
3. Those with gastrointestinal tract diseases, who cannot take drugs orally.
4. Those who take antibacterial within one week before the selection.
According to statistics on the test results by statistics experts, the clinical efficacy (FAS) is: […]

[12] = test system: staphylococcus aureus16; test: MIC against the infecting test organism; assay type: cell-based, staphylococcus aureus; conditions: read-out: MIC
[13] = test system: streptococcus pneumoniae18; test: MIC against the infecting test organism; assay type: cell-based, streptococcus pneumoniae; conditions: read-out: MIC
[14] = test system: pyogenic streptococcus 772; test: Curative effect on mouse with abdominal infection (ED50); assay type: in vivo; conditions: Streptococcus, 772, 168 h, pyogenic streptococcus 772, challenging dose 6.9 × 10^3 CFU/0.5 ml, deaths in 7 days, Bliss, read-out: ED50
Protocol: as §1, §2, §3

[15] = test system: pyogenic streptococcus 102; test: as above; assay type: in vivo; conditions: Streptococcus, 102, 168 h, pyogenic streptococcus 102, challenging dose 7.8 × 10^4 CFU/0.5 ml, deaths in 7 days, Bliss, read-out: ED50
Protocol: as §1, §2, §3

[16] = test system: pyogenic streptococcus 119; test: as above; assay type: in vivo; conditions: Streptococcus, 119, 168 h, pyogenic streptococcus 119, challenging dose 4.9 × 10^4 CFU/0.5 ml, deaths in 7 days, Bliss, read-out: ED50
Protocol: as §1, §2, §3

[17] = test system: staphylococcus aureus21; test: MIC against the infecting test organism; assay type: cell-based, staphylococcus aureus; conditions: read-out: MIC
[18] = test system: pyogenic streptococcus 772; test: MIC against the infecting test organism; assay type: cell-based; conditions: read-out: MIC
[19] = test system: streptococcus pneumoniae57; test: MIC against the infecting test organism; assay type: cell-based, streptococcus pneumoniae; conditions: read-out: MIC
[20] = test system: pyogenic streptococcus (93); test: Clinical isolates, agar double dilution method; assay type: cell-based; conditions: 93 clinical isolates of pyogenic streptococcus
[21] = test system: hemophilus influenzae (37); test: Clinical isolates, agar double dilution method; assay type: cell-based; conditions: 37 clinical isolates of hemophilus influenzae

Work on `COC1C(OC(C)=O)CC(=O)OC(C)C/C=C/C=C/C(OC2CCC(N(C)C)C(C)O2)C(C)CC(CC=O)C1OC1OC(C)C(OC2CC(C)(O)C(OC(=O)CC(C)C)C(C)O2)C(N(C)C)C1O` (stereo not shown) [Levoisovalerylspiramycin II, levoisovalerylspiramycin II] yielded an ED50 [1] of 8.98 mg/kg, an ED50 [2] of 13.1 mg/kg and an ED50 [3] of 8.99 mg/kg. The MIC [4] was 0.25 µg/mL (≈ 0.258 µM), the LD50 at 1 week [5] was greater than 4500 mg/kg and the “Mortality rate (%)” value ([5]; 1 week) was 15%. For the same molecule, the mortality ([5]; 1 week) was 3, the LD50 at 1 week [6] was greater than 4000 mg/kg and the “Mortality rate (%)” value ([6]; 1 week) was 35%. It also gave a mortality ([6]; 1 week) of 7, an MIC [7] of 0.25 µg/mL (≈ 0.258 µM) and an MIC50 ([8]; read-out: MIC50) of 1 µg/mL (≈ 1.03 µM). For the same molecule, the MIC90 ([8]; read-out: MIC90) was 16 µg/mL (≈ 16.5 µM), the MIC [9] was 0.12 µg/mL (≈ 0.124 µM) and the MIC [10] was 0.12 µg/mL (≈ 0.124 µM). The adverse reaction [11] was 2.5%, the clearance of pathogens [11] was 97.56% and the “clinical efficacy (FAS)” value [11] was 92.30%. The MIC [12] was 0.25 µg/mL (≈ 0.258 µM), the MIC [13] was 0.03 µg/mL (≈ 0.031 µM) and the ED50 [14] was 24.6 mg/kg. For the same molecule, the ED50 [15] was 63.2 mg/kg, the ED50 [16] was 52.8 mg/kg and the MIC [17] was 0.5 µg/mL (≈ 0.516 µM). For the same molecule, the MIC [18] was 0.06 µg/mL (≈ 0.0619 µM), the MIC [19] was 0.06 µg/mL (≈ 0.0619 µM) and the MIC50 ([20]; read-out: MIC50) was 0.25 µg/mL (≈ 0.258 µM). It also gave an MIC90 ([20]; read-out: MIC90) of 32 µg/mL (≈ 33 µM), an MIC range [21] of 0.03 to 32 µg/mL and an MIC50 ([21]; Haemophilus influenzae, read-out: MIC50) of 0.12 µg/mL (≈ 0.124 µM). For the same molecule, the MIC90 ([21]; Haemophilus influenzae, read-out: MIC90) was 1 µg/mL (≈ 1.03 µM).
